{
  "source": "paper PMC11784026",
  "about": "“Phase 1 study of the safety, tolerability, and pharmacokinetics of a synthetic macrocyclic peptide antibiotic (BRII-693) in healthy adult participants” (Antimicrobial Agents and Chemotherapy, 2024)",
  "key": {"[1]": {"experimental": "During the MAD phase of the study, repeat dosing of 100, 150, and 200 mg of BRII-693 was evaluated in sequential cohorts (cohorts 8–10) composed of eight participants each (six active; two placebo). Participants first received a single dose of BRII-693 or placebo as a 1-hour IV infusion on day 1; and then 48 hours later on day 3 through day 9, participants received BRII-693 or placebo every 6 hours (q6h) for 7 days, with the last dose in the morning on day 9. Participants were discharged on day 11. In the remaining two MAD cohorts (cohorts 11 and 12), repeat dosing of 150 mg of BRII-693 q6h for 14 days was evaluated in non-Chinese and Chinese (first and second generation) participants. Each cohort comprises 12 participants (10 active and 2 placebo). The last dose was in the morning on day 14, and participants were discharged on day 17.\nFor the 7-day MAD cohorts 8–10, blood samples were collected (i) on day 1 before dosing and at 0.5, 1, 1.25, 1.5, 2, 4, 6, 8, 12, 24, 36, and 48 hours following the start of dosing infusion; (ii) on day 3 prior to the morning dose and at 0.5, 1, 1.25, 1.5, 2, 4, and 6 hours after the start of the first dosing infusion; (iii) on day 9 before dosing and at 0.5, 1, 1.25, 1.5, 2, 4, 6, 8, 12, 24, 36, and 48 hours following the start of the last dosing infusion in the morning. Urine samples were collected before dosing and at the time intervals of 0–4, 4–8, 8–12, 12–24, 24–36, and 36–48 hours after the start of dosing infusion on days 1 and 9.\nFor the 14-day MAD cohorts 11 and 12, blood samples were collected (i) on day 1 prior to and at 0.5, 1, 1.25, 1.5, 2, 4, and 6 hours after the start of the first dosing infusion and (ii) on day 14 before dosing and at 0.5, 1, 1.25, 1.5, 2, 4, 6, 8, 12, 24, 36, 48, 60, and 72 hours following the start of the last dosing infusion in the morning. Urine samples were collected before dosing and at the time intervals of 0–4, 4–8, 8–12, 12–24, 24–36, 36–48, and 48–72 hours after the start of dosing infusion on Day 14.\n(§1) All blood samples were collected into EDTA-containing vials, immediately placed on ice, and centrifuged at 3,000× g for approximately 10 minutes at 4°C. Supernatant plasma was transferred to two pre-chilled cryopreservation vials (at least 1.0 mL per vial) and stored at −80°C until shipped to the analytical laboratory. Urine samples collected for each time interval were refrigerated, aliquoted, and stored at −80°C until shipped to the analytical laboratory. Plasma and urine samples were analyzed for BRII-693 concentrations using validated high-performance liquid chromatography with detection by mass spectrometry method (BioAgilytix, San Diego, CA). The assay range was 50.0–50,000 ng/mL in both plasma and urine.\n(§2) Area under the concentration-time curve (AUC) from time zero to the time of the last quantifiable concentration (AUC0–last), AUC from time zero to infinity (AUC0–inf), AUC within a dosing interval of 6 hours (AUC0–6h), maximum observed concentration (Cmax), time to reach maximum concentration (Tmax), apparent terminal half-life (t1/2), total clearance (CL), volume of distribution during terminal phase (Vz), and accumulation ratio based on AUC (ARAUC) were determined for BRII-693 in plasma. Urine parameters included amount and percentage of dose recovered in urine as unchanged drug over each collection interval and cumulatively and renal clearance (CLR). PK parameters were determined using noncompartmental methods in Phoenix WinNonlin (Certara, Version 8.3)."}, "[2]": {"conditions": "SAD; for fe0–48h: % of dose in urine as unchanged drug over 48 h; for CLR: renal clearance", "experimental": "During the SAD phase of the study, cohort dosing of 10, 25, 50, 100, 200, 300, and 400 mg of BRII-693 was evaluated in a sequential manner. Each of the seven SAD cohorts enrolled eight eligible participants (six active; two placebo). On day 1, participants received a single IV dose of BRII-693 or placebo as a 1-hour infusion. Participants were then discharged on day 3.\nFor the SAD cohorts, blood samples for the measurement of BRII-693 in plasma were obtained before dosing and at 0.5 (mid-infusion), 1 (end of infusion), 1.25, 1.5, 2, 4, 6, 8, 12, 24, 36, and 48 hours following the start of dosing infusion. Urine samples were collected for PK assessment before dosing and at the time intervals of 0–4, 4–8, 8–12, 12–24, 24–36, and 36–48 hours after the start of dosing infusion.\nas §1, §2"}, "[3]": {"assay": "Renal function: serum creatinine, RIFLE Risk criteria", "type": "in vivo, human (healthy adult participants)", "conditions": "for Serum creatinine level: cohort 12, 150 mg q6h × 14 days", "excerpt": "Safety assessments included repeated measures of laboratory testing, vital signs, ECGs, physical examinations, and adverse event (AE) monitoring and reporting conducted before, during, and after study drug administration. A >1.5× increase from baseline in creatinine was characterized as meeting the (RIFLE) “Risk” level (or Class R) criteria ([10]). Participants were confined at the clinical research unit for the duration of their study participation. For the SAD cohorts, confinement was from the day before dosing through day 3 (at least 48 hours after dosing). For the MAD cohorts, confinement was from the day before dosing through day 11 for cohorts 8 to 10 and through day 17 for cohorts 11 and 12."}, "[4]": {"conditions": "single 1-h IV infusion 10 mg, n = 5, arithmetic mean ± SD"}, "[5]": {"conditions": "single 1-h IV infusion 25 mg, n = 5, arithmetic mean ± SD"}, "[6]": {"conditions": "single 1-h IV infusion 50 mg, n = 6, arithmetic mean ± SD"}, "[7]": {"conditions": "single 1-h IV infusion 100 mg, n = 6, arithmetic mean ± SD"}, "[8]": {"conditions": "single 1-h IV infusion 200 mg, n = 6, arithmetic mean ± SD"}, "[9]": {"conditions": "single 1-h IV infusion 300 mg, n = 6, arithmetic mean ± SD"}, "[10]": {"conditions": "single 1-h IV infusion 400 mg, n = 6, arithmetic mean ± SD"}},
  "note": "Values joined by “and” are separate entries in the source; they are usually repeats but may differ in a detail not shown here. Equal entries are not always repeated. Where two headings read alike, the source gives them in different places. Marks after values point to notes of the source that are not given here. Where a SMILES comes first, the peptide text is derived from it. Bridges are numbered along the chain shown (N, C = ends). [ ]: non-standard residue; d: D form. The star is where a group is joined. X1 = O=C(c1ccc(Cl)cc1Cl)*; Dab = NCC[C@H](N)C(=O)O; Abu = CC[C@H](N)C(=O)O; Dap = NC[C@H](N)C(=O)O",
  "data": [
    {"compound": "CC[C@@H]1NC(=O)[C@@H](CC(C)C)NC(=O)[C@H](CCN)NC(=O)[C@@H](NC(=O)[C@H](CN)NC(=O)[C@@H](NC(=O)[C@H](CCN)NC(=O)c2ccc(Cl)cc2Cl)[C@@H](C)O)CCNC(=O)[C@H]([C@@H](C)O)NC(=O)[C@H](CCN)NC(=O)[C@H](CCN)NC1=O", "note": "[BRII-693] (X1-[Dab]T[Dap][Dab][Dab][dL][Abu][Dab][Dab]T; lactam 4-C; N-terminus assumed)", "values": [
      {"measurement": "CLR", "setting": "[1]; Last q6h dose (day 9), 7-day MAD 100 mg q6h × 7, renal clearance, n = 6, arithmetic mean ± SD", "result": "1.40 ± 0.60", "unit": "L/h"},
      {"measurement": "fe0–48h", "setting": "[1]; Last q6h dose (day 9), 7-day MAD 100 mg q6h × 7, urinary recovery over 48 h, n = 6, arithmetic mean ± SD", "result": "66.5 ± 18.0", "unit": "%"},
      {"measurement": "CLR", "setting": "[1]; Last q6h dose (day 9), 7-day MAD 150 mg q6h × 7, renal clearance, n = 5, arithmetic mean ± SD", "result": "1.60 ± 0.60", "unit": "L/h"},
      {"measurement": "fe0–48h", "setting": "[1]; Last q6h dose (day 9), 7-day MAD 150 mg q6h × 7, urinary recovery over 48 h, n = 5, arithmetic mean ± SD", "result": "57.2 ± 19.2", "unit": "%"},
      {"measurement": "CLR", "setting": "[1]; Last q6h dose (day 9), 7-day MAD 200 mg q6h × 7, renal clearance, n = 5, arithmetic mean ± SD", "result": "1.41 ± 0.23", "unit": "L/h"},
      {"measurement": "fe0–48h", "setting": "[1]; Last q6h dose (day 9), 7-day MAD 200 mg q6h × 7, urinary recovery over 48 h, n = 5, arithmetic mean ± SD", "result": "74.3 ± 30.3", "unit": "%"},
      {"measurement": "CLR", "setting": "[1]; Last q6h dose (day 14), 14-day MAD 150 mg q6h × 14, Chinese, renal clearance, n = 6, arithmetic mean ± SD", "result": "1.67 ± 0.43", "unit": "L/h"},
      {"measurement": "fe0–48h", "setting": "[1]; Last q6h dose (day 14), 14-day MAD 150 mg q6h × 14, Chinese, urinary recovery over 48 h, n = 6, arithmetic mean ± SD", "result": "70.9 ± 22.0", "unit": "%"},
      {"measurement": "CLR", "setting": "[1]; Last q6h dose (day 14), 14-day MAD 150 mg q6h × 14, non-Chinese, renal clearance, n = 10, arithmetic mean ± SD", "result": "1.91 ± 0.79", "unit": "L/h"},
      {"measurement": "fe0–48h", "setting": "[1]; Last q6h dose (day 14), 14-day MAD 150 mg q6h × 14, non-Chinese, urinary recovery over 48 h, n = 10, arithmetic mean ± SD", "result": "74.1 ± 25.6", "unit": "%"},
      {"measurement": "Urinary recovery compared with polymyxin B", "setting": "[1]; comparison with literature polymyxin B data (ref 11)", "result": "higher urinary recovery than polymyxin B"},
      {"measurement": "fe0–48h", "setting": "[2]; [4]", "result": "0.95 ± 0.50^b %"},
      {"measurement": "CLR", "setting": "[2]; [4]", "result": "0.036 ± 0.018^b L/h"},
      {"measurement": "fe0–48h", "setting": "[2]; [5]", "result": "5.73 ± 3.67", "unit": "%"},
      {"measurement": "CLR", "setting": "[2]; [5]", "result": "0.22 ± 0.12", "unit": "L/h"},
      {"measurement": "fe0–48h", "setting": "[2]; [6]", "result": "21.5 ± 9.19", "unit": "%"},
      {"measurement": "CLR", "setting": "[2]; [6]", "result": "0.86 ± 0.33", "unit": "L/h"},
      {"measurement": "fe0–48h", "setting": "[2]; [7]", "result": "40.2 ± 5.40", "unit": "%"},
      {"measurement": "CLR", "setting": "[2]; [7]", "result": "1.51 ± 0.31", "unit": "L/h"},
      {"measurement": "fe0–48h", "setting": "[2]; [8]", "result": "47.6 ± 15.6", "unit": "%"},
      {"measurement": "CLR", "setting": "[2]; [8]", "result": "1.92 ± 0.80", "unit": "L/h"},
      {"measurement": "fe0–48h", "setting": "[2]; [9]", "result": "57.5 ± 16.2", "unit": "%"},
      {"measurement": "CLR", "setting": "[2]; [9]", "result": "2.44 ± 0.50", "unit": "L/h"},
      {"measurement": "fe0–48h", "setting": "[2]; [10]", "result": "68.4 ± 11.4", "unit": "%"},
      {"measurement": "CLR", "setting": "[2]; [10]", "result": "2.68 ± 0.42", "unit": "L/h"},
      {"measurement": "Participants with creatinine elevation (>1.5× increase from baseline, RIFLE risk class)", "setting": "[3]; 150 mg q6h × 14 days", "result": "1 of 20"},
      {"measurement": "Serum creatinine level after completion of therapy", "setting": "[3]; 200 mg q6h × 7 days, first participant, day 11", "result": 1.17, "unit": "mg/dL"},
      {"measurement": "Peak serum creatinine level", "setting": "[3]; 200 mg q6h × 7 days, one participant, day 10", "result": 1.54, "unit": "mg/dL"},
      {"measurement": "Serum creatinine level after completion of therapy", "setting": "[3]; 200 mg q6h × 7 days, other participant, day 11", "result": 1.10, "unit": "mg/dL"},
      {"measurement": "Participants with creatinine elevation (>1.5× increase from baseline, RIFLE risk class)", "setting": "[3]; 200 mg q6h × 7 days, reversible", "result": "Two of six and 2 of 6"},
      {"measurement": "Peak serum creatinine level", "setting": "[3]; 200 mg q6h × 7 days, the other participant, day 9", "result": 1.64, "unit": "mg/dL"},
      {"measurement": "Serum creatinine level", "setting": "[3]; one participant, day 9", "result": 1.74, "unit": "mg/dL"},
      {"measurement": "Serum creatinine level", "setting": "[3]; one participant, day 11", "result": 1.72, "unit": "mg/dL"},
      {"measurement": "Serum creatinine level", "setting": "[3]; one participant, day 13", "result": 2.07, "unit": "mg/dL"},
      {"measurement": "Serum creatinine level", "setting": "[3]; same participant, unscheduled visit after day 13", "result": 1.39, "unit": "mg/dL"}
    ]}
  ]
}
